Test results from US9309242B2, “Substituted pyrido[2,3-b]pyrazines as FGFR kinase inhibitors” (priority 2011, dated 2016).
Read-outs that look alike come from different tables or passages of the source.

How the values were obtained:
FGFR2 (h) = FGFR2 (h) (Homo sapiens, UniProt P21802); assay: FGFR2 (enzymatic assay), TR-FRET; type: biochemical; settings: enzymatic assay, read-out: FGFR 2 pIC50 (converted)
Outline: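 Human FGFR2 (150 ng/ml) was incubated with 500 nM Btn-Flt3 substrate and 0.4 μM ATP in 50 mM HEPES pH 7.5, 6 mM MnCl2, 1 mM DTT, 0.1 mM Na3VO4, 0.01% Triton-X-100. Compound was present at 1% DMSO final.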

FGFR4 (h) = FGFR4 (h) (Homo sapiens, UniProt P22455); assay: FGFR4 (enzymatic assay), TR-FRET; type: biochemical; settings: FGFR 4 pIC50, enzymatic assay
FGFR4 (h), sequence (P22455 22-802): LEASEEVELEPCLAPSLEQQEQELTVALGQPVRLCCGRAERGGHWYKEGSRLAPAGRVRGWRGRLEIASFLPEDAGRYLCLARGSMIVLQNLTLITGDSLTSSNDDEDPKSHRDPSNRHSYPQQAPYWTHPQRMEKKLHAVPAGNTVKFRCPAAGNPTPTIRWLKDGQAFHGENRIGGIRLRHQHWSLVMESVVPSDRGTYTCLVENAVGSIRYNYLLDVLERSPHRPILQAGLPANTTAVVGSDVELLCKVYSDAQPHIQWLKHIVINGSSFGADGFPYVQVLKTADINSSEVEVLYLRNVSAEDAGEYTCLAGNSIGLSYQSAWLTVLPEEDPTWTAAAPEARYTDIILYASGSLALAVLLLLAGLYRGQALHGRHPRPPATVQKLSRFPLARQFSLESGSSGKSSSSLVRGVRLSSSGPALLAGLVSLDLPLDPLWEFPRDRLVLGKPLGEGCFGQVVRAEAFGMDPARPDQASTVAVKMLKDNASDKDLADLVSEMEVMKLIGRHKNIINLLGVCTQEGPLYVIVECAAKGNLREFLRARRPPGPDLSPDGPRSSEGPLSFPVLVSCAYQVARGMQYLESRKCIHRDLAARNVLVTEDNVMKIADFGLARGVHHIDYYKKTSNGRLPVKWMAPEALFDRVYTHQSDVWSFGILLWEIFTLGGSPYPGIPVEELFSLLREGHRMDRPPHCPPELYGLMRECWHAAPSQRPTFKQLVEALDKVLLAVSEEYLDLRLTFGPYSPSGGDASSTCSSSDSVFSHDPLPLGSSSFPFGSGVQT

[1] = target: T1, Ba/F3-FGFR1-transfected cells (Homo sapiens, UniProt P11362); assay: Ba/F3-FGFR1 (minus IL3) cellular proliferation assay, Alamar Blue; type: cell-based
T1 construct: BAF3-FGFR1 (MIN IL3) pIC50; other: minus IL3
T1 sequence (P11362 whole entry, change not shown): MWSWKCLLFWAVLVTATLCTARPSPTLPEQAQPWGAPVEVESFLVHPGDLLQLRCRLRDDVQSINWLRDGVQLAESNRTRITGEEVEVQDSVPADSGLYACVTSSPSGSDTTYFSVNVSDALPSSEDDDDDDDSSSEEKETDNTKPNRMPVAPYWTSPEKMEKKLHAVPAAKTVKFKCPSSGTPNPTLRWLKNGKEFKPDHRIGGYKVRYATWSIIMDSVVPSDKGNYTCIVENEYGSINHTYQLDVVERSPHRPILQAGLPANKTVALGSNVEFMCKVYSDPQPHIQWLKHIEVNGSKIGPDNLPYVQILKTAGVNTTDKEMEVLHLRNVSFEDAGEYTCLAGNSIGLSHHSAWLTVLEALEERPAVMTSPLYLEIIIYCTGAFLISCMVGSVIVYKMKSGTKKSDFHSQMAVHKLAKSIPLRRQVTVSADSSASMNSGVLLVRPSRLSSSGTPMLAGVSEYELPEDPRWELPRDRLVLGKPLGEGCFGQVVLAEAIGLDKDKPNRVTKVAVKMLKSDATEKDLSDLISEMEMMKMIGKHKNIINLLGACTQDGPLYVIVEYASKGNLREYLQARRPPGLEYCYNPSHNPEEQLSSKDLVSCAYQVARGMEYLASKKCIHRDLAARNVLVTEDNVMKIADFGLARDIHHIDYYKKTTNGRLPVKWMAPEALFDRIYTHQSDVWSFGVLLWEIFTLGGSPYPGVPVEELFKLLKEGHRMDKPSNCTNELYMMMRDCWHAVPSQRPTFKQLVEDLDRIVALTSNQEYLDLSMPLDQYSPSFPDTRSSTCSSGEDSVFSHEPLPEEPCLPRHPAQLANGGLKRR
Outline: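 Viability of transfected Ba/F3-FGFR1 cells (20000 per well, RPMI-1640 with 10% FBS and 2 mM L-glutamine) was scored by resazurin-based Alamar Blue reduction over 4 h, after 24 h treatment with compound at 37 °C under 5% CO2.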

[2] = target: T2, Ba/F3-FGFR3-transfected cells (Homo sapiens, UniProt P22607); assay: Ba/F3-FGFR3 (minus IL3) cellular proliferation assay, Alamar Blue; type: cell-based
T2 construct: BAF3-FGFR3 (MIN IL3) pIC50; other: minus IL3
T2 sequence (P22607 whole entry, change not shown): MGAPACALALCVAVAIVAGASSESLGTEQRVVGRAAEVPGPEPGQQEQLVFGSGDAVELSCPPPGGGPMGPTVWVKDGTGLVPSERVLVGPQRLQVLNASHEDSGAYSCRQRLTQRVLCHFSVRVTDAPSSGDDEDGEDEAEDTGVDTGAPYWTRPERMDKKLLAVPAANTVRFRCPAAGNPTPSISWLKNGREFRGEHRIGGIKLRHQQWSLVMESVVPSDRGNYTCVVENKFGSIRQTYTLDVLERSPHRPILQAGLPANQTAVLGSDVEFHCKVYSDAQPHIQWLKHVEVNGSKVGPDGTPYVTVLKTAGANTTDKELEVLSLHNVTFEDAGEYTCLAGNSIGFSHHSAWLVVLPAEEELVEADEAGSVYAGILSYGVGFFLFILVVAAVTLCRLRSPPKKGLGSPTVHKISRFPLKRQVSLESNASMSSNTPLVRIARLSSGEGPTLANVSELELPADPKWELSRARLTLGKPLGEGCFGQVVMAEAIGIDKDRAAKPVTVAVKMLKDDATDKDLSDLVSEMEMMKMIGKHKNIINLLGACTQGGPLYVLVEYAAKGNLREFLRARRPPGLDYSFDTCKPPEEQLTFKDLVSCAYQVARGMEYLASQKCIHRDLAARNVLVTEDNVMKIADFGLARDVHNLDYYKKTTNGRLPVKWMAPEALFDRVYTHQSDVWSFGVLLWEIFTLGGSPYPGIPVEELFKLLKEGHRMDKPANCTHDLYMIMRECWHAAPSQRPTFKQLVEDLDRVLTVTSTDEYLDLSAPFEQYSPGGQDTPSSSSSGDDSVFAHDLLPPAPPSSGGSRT
Outline: (§1)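 With or without 10 ng/ml murine IL3, FGFR3-dependent Ba/F3 cells were treated 24 h with compound, then viability was gauged by Alamar Blue fluorescence after 4 h (ex 540/em 590 nm).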

[3] = system: Ba/F3-FGFR3-transfected cells; assay: Ba/F3-FGFR3 (plus IL3) cellular proliferation assay, counterscreen with 10 ng/ml murine IL3; type: cell-based; settings: plus IL3 (10 ng/ml murine IL3, counterscreen); read-out: BAF3-FGFR3 (PLUS IL3) pIC50 (converted)
Outline: as §1

[4] = target: T3, Ba/F3-KDR-transfected cells (Homo sapiens, UniProt P35968); assay: Ba/F3-KDR (minus IL3) cellular proliferation assay, Alamar Blue; type: cell-based
T3 construct: BAF3-KDR (MIN IL3) pIC50; other: minus IL3
T3 sequence (P35968 whole entry, change not shown): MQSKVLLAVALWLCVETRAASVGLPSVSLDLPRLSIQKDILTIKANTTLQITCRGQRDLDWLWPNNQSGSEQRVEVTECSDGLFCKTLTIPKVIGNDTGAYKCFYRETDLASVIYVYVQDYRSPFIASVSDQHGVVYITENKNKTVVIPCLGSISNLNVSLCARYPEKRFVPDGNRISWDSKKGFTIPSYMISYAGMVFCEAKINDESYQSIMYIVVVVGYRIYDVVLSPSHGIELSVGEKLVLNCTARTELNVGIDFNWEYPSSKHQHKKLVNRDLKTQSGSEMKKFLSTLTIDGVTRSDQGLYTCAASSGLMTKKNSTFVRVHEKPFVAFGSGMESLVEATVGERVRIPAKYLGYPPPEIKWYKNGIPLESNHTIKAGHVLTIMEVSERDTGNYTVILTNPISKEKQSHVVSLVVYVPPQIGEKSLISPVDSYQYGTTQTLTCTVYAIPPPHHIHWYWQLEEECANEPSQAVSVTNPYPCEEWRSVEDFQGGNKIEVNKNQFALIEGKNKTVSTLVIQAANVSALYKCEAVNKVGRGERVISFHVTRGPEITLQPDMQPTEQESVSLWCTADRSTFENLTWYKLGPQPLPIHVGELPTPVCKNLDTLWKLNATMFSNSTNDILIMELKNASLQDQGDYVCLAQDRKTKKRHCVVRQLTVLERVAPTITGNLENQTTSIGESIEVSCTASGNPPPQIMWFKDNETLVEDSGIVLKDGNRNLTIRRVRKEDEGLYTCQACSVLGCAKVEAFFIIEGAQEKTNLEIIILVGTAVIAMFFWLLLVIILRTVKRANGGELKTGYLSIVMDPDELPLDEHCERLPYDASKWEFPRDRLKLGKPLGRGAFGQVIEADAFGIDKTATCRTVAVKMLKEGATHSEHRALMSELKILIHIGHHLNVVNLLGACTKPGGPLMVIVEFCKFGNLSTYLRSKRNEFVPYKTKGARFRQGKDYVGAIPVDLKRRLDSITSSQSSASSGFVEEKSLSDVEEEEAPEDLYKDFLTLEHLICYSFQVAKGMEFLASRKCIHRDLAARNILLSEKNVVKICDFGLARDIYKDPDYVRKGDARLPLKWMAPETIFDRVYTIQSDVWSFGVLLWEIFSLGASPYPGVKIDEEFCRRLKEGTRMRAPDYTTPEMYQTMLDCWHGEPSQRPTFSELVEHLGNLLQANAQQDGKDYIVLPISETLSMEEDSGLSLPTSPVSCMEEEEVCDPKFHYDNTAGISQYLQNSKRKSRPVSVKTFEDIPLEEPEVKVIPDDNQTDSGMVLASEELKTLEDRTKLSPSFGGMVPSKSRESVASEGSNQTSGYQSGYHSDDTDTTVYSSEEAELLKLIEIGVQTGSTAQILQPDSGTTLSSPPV
Outline: (§2)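 Ba/F3-KDR cells (20000 per well) in phenol red-free RPMI-1640 with 10% FBS were exposed to compound for 24 hours at 37° C, 5% CO2. Alamar Blue (resazurin) was then added for 4 hours, and fluorescence was read at ex. 540 nm/em. 590 nm.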

[5] = system: Ba/F3-KDR-transfected cells; assay: Ba/F3-KDR (plus IL3) cellular proliferation assay, counterscreen with 10 ng/ml murine IL3; type: cell-based; settings: plus IL3 (10 ng/ml murine IL3, counterscreen); read-out: BAF3-KDR (PLUS IL3) pIC50 (converted)
Outline: as §2

[6] = average values if tested multiple times

FGFR2 (h), sequence (P21802 22-821): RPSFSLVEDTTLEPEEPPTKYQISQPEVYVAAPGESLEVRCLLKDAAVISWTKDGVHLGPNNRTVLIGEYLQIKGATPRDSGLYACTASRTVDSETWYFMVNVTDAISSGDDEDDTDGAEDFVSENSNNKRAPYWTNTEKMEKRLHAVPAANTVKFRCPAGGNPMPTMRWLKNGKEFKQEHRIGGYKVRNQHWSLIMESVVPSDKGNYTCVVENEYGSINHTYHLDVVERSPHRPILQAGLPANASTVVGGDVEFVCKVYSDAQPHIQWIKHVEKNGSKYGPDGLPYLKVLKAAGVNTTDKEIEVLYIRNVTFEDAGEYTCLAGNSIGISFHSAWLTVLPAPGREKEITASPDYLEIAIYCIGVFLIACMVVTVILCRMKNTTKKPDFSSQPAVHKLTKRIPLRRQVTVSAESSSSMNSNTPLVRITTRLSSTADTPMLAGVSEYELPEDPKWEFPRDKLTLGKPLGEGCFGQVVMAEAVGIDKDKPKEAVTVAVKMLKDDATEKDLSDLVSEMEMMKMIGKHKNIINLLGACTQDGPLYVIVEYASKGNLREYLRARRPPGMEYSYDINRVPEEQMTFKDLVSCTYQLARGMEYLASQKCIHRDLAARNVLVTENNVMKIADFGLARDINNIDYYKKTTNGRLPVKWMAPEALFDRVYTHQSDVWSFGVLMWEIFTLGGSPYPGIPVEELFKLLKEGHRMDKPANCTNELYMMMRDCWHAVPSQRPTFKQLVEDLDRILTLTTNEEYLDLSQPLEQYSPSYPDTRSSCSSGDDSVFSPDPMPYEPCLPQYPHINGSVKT

Structure (SMILES)	IC50 (FGFR2 (h); [6]) [µM]	IC50 (FGFR4 (h); [6]) [µM]	BAF3-FGFR1 (MIN IL3) pIC50 [1]	BAF3-FGFR3 (MIN IL3) pIC50 [2]	IC50 [3] [µM]	BAF3-KDR (MIN IL3) pIC50 [4]	IC50 [5] [µM]	IC50 (FGFR2 (h)) [µM]	IC50 (FGFR4 (h)) [µM]
COc1cc(OC)c(F)c(/N=c2\ccc3ncc(-c4cnn(C)c4)nc3n2CC2CCC(=O)N2)c1F (stereo not shown) [Compound 193]	0.000794	0.000955	8.01	~8.06	> 10	6.28	> 10	–	–
COc1cc(OC)c(F)c(N(Cc2ccnn2C)c2ccc3ncc(-c4cnn(C)c4)nc3n2)c1 [Compound 113]	0.00219	0.00331	7.19	6.72	> 10	5.33	> 10	–	–
COc1cc(OC)cc(N(CC2CCC(=O)N2)c2ccc3ncc(-c4cnn(C)c4)nc3n2)c1 (stereo not shown) [Compound 49]	0.00195	0.00631	6.78	~6.85	> 10	5.16	> 10	–	–
COc1cc(OC)c(F)c(N(Cc2nn[nH]n2)c2ccc3ncc(-c4cnn(C)c4)nc3n2)c1 [Compound 140]	–	–	<5	<5	> 10	<5	> 10	0.00447	0.0117
COc1cc(/N=c2\ccc3ncc(-c4cnn(C)c4)nc3n2Cc2cc[nH]n2)c(F)c(OC)c1 [Compound 115]	0.00158	0.000933	~8.17	7.82	> 10	6.58	> 10	–	–
COc1cc(OC)c(F)c(N(Cc2ncc[nH]2)c2ccc3ncc(-c4cnn(C)c4)nc3n2)c1 [Compound 23]	0.00145	0.001	8.85	~8.40	> 10	6.74	> 10	–	–
COc1cc(OC)cc(N(CC#Cc2ncccc2OC)c2ccc3ncc(-c4cnn(C)c4)nc3n2)c1 [Compound 26]	0.0631	0.0631	6.8	~5.55	> 10	<5	> 10	–	–
COc1cc(OC)c(F)c(N(Cc2nc[nH]c2C)c2ccc3ncc(-c4cnn(C)c4)nc3n2)c1 [Compound 109]	0.00229	0.00269	7.85	~7.65	> 10	~6.01	> 10	–	–
COc1cc(OC)c(F)c(N(Cc2nc3c([nH]2)CCNC3)c2ccc3ncc(-c4cnn(C)c4)nc3n2)c1 [Compound 104]	0.00324	0.00347	6.70	~6.01	> 10	5.10	> 10	–	–
COc1cc(OC)c(F)c(N(c2ccc3ncc(-c4cnn(C)c4)nc3n2)C(CO)COC(C)C)c1 (single isomer, unassigned) [Compound 76]	0.468	0.214	5.55	5.64	> 10	<5	> 10	–	–
COc1ccc(Cl)c(/N=c2\ccc3ncc(-c4cnn(C)c4)nc3n2CC2CCC(=O)N2)c1Cl (single isomer, unassigned) [Compound 89]	0.0708	~1.12	5.18	5.14	> 10	<5	> 10	–	–
COc1cc(/N=c2\ccc3ncc(-c4cnn(C)c4)nc3n2CC(O)COC(C)C)c(F)c(OC)c1 (single isomer, unassigned) [Compound 77]	0.00316	0.00302	7.37	7.38	> 10	5.33	> 10	–	–
COc1cc(/N=c2\ccc3ncc(-c4cnn(C)c4)nc3n2CC2COC(=O)N2)c(F)c(OC)c1 (single isomer, unassigned) [Compound 112]	0.00166	0.00204	7.23	~7.27	> 10	5.65	> 10	–	–
CNCCn1/c(=N/c2c(Cl)ccc(OC)c2Cl)ccc2ncc(-c3cnn(C)c3)nc21 [Compound 84]	0.126	3.55	5.15	~5.11	> 10	<5	> 10	–	–
COc1cc(OC)c(F)c(N(CC2CCCCO2)c2ccc3ncc(-c4cnn(C)c4)nc3n2)c1 (stereo not shown) [Compound 139]	–	–	7.40	7.38	> 10	5.33	> 10	0.00331	0.00417
CNCCN(c1ccc2ncc(-c3cnn(C)c3)nc2n1)c1c(Cl)ccc(OC)c1Cl [Compound 83]	0.049	0.933	5.36	~5.66	> 10	<5	> 10	–	–
COc1cc(OC)c(F)c(N(Cc2ccn(C)n2)c2ccc3ncc(-c4cnn(C)c4)nc3n2)c1 [Compound 128]	–	–	8.10	8.03	> 10	6.34	> 10	0.00155	0.00129
COc1ccc(Cl)c(N(Cc2ncc[nH]2)c2ccc3ncc(-c4cnn(C)c4)nc3n2)c1Cl [Compound 65]	~0.0112	~0.355	5.97	6.04	> 10	5.06	> 10	–	–
COc1cc(OC)c(F)c(N(Cc2c[nH]c(C)n2)c2ccc3ncc(-c4cnn(C)c4)nc3n2)c1 [Compound 137]	–	–	~8.11	7.64	> 10	6.19	> 10	0.00204	0.0017
